Data: article PMC10447463, “Data-mining unveils structure–property–activity correlation of viral infectivity enhancing self-assembling peptides” (Nature Communications, 2023)
Where two headings read alike, the source gives them in different places.

Key:
[1] = assay type: physicochemical; conditions: for Tht category (> 1.5 to blank = +): category 1/0
In short: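 Preformed peptide fibrils (1 mg/mL) mixed with 50 µM ThT in PBS, 15 min at RT, fluorescence ex 440/em 488 nm versus PBS blank, triplicates. Zeta potential: peptides at 1 mg/mL in PBS pH 7.4, aged 1 d at RT, diluted in 1 mM KCl, Smoluchowski from electrophoretic mobility.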

[2] = Zeta-potential measurement; assay type: physicochemical; conditions: for Zeta-pot. / mV: zeta potential of peptide, Fig S15 source data
In short: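 In this measurement, peptides aggregated for a day at RT in phosphate-buffered saline (pH 7.4, 1 mg/mL) are diluted into 1 mM potassium chloride, and the electrophoretic mobility is translated into zeta potential by Smoluchowski's relation.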

[3] = ThT fluorescence relative to blank (42.1851851851852 a.u.)
[4] = relative to blank 42.1851851851852 a.u.
[5] = ThT fluorescence relative to blank, blank = 42.1851851851852
[6] = category derived from the zeta potential

| Substance | Tht rel to blank (42.1851851851852) [1, 3] | Tht category (> 1.5 to blank = +) [1] | Tht rel to blank (42.1851851851852) [1, 4] | Zeta category ( +1 = if > 4 mV;-1 = if < -4 mV; 0 = -4mV to 4 mV) [2] | Zeta category ( +1 = if > 4 mV;-1 = if < -4 mV; 0 = -4mV to 4 mV) ([2]; category from zeta potential) | Zeta Pot. / mV ([2]; mean, Std Zeta in next column) | Zeta Pot. / mV ([2]; mean, Std in separate column) | Zeta-pot. / mV [2] | Tht category (> 2 to blank = +) ([1]; Fig S10 panel D) | ThT Cat. ([1]; Fig S10 panel E) | ThT Cat, ([1]; ThT category, 1 if Rel. ThT >2) | ThT Cat. ([1]; ThT fluorescence category, 1 if Rel. ThT >2) | ThT Cat. / ThT-Fluorescence (categorical) ([1]; ThT-active if fluorescence at least twice the control) | Zeta-Pot. ([2]; zeta potential of peptide assemblies) | Zeta-Potential / mV ([2]; zeta-potential of peptide, source data of Figure 2C) | Zeta-Potential / mV ([2]; zeta-potential of the peptide assemblies, mean, Figure 3A source data) | Tht rel to blank (42.1851851851852) [1, 5] | Zeta Pot. / mV [2] | Zeta category ( +1 = if > 4 mV;-1 = if < -4 mV; 0 = -4mV to 4 mV) [2, 6] |
| --- | --- | --- | --- | --- | --- | --- | --- | --- | --- | --- | --- | --- | --- | --- | --- | --- | --- | --- | --- |
| KIKIQINM [JGB2] | 1.587 | 0 (ThT-inactive (N-Fold <2)) | 1.587 | 1 (+1 = if > 4 mV) | 1 (+1 = if > 4 mV) | 8.51 mV | 8.51 mV | 8.51 mV | – | – | – | – | – | – | – | – | – | – | – |
| CKIKIQINMWQ | – | – | – | – | – | – | – | – | 1 (ThT. Cat is 1, if Rel. ThT >2) | 1 (ThT. Cat is 1, if Rel. ThT >2) | 1 (ThT. Cat is 1, if Rel. ThT >2) | 1 (ThT. Cat is 1, if Rel. ThT >2) | 1 (ThT. Cat is 1, if Rel. ThT >2) | 13.87 | 12.25 mV | 13.87 mV | – | – | – |
| KAKAQA [JJA2 / TM153] | 1.172 | 0 (ThT-inactive (N-Fold <2)) | 1.172 | -1 (-1 = if < -4 mV) | -1 (-1 = if < -4 mV) | -14.08 mV | -14.08 mV | -14.08 mV | – | – | – | – | – | – | – | – | – | – | – |
| CKAKAQA [TM155] | 1.227 | 0 (ThT-inactive (N-Fold <2)) | 1.227 | -1 (-1 = if < -4 mV) | -1 (-1 = if < -4 mV) | -8.01 mV | -8.01 mV | -8.01 mV | – | – | – | – | – | – | – | – | – | – | – |
| QCKFKQFFNMWQ [CK10] | 25.38 | 1 (ThT. Cat is 1, if Rel. ThT >2) | 25.38 | 1 (+1 = if > 4 mV) | 1 (+1 = if > 4 mV) | 9.587 mV | 9.587 mV | 9.587 mV | – | – | – | – | – | – | – | – | 25.38 | 9.587 mV | – |
| QCKFKQFFNM [CK11] | 12.72 | 1 (ThT. Cat is 1, if Rel. ThT >2) | 12.72 | 1 (+1 = if > 4 mV) | – | 13.67 mV | 13.67 mV | 13.67 mV | – | – | – | – | – | – | – | – | 12.72 | 13.67 mV | 1 (+1 = if > 4 mV) |
| KAKAQANM [TM152] | 1.082 | 0 (ThT-inactive (N-Fold <2)) | 1.082 | 0 (0 = -4mV to 4 mV) | 0 (0 = -4mV to 4 mV) | -2.62 mV | -2.62 mV | -2.62 mV | – | – | – | – | – | – | – | – | – | – | – |
| CKIKQII [MG4a] | 3.914 | 1 (ThT. Cat is 1, if Rel. ThT >2) | 3.914 | 0 (0 = -4mV to 4 mV) | 0 (0 = -4mV to 4 mV) | -3.83 mV | -3.83 mV | -3.83 mV | – | – | – | – | – | – | – | – | 3.914 | -3.83 mV | – |
| CQFQFQF [QBL4] | – | 1 (ThT. Cat is 1, if Rel. ThT >2) | 13.03 | -1 (-1 = if < -4 mV) | – | -24.8 mV | – | -24.8 mV | – | – | – | – | – | – | – | – | – | – | – |
| KIKIKIKIYYYY [JR7] | 1.259 | – | – | – | – | 13.3 mV | – | 13.3 mV | – | – | – | – | – | – | – | – | – | – | 1 (+1 = if > 4 mV) |
